What follows are molecules tested against T1, Glucocorticoid Receptor (GR) (Homo sapiens, UniProt P04150) (assay: GR receptor competitor assay by fluorescence polarization (Invitrogen GR competitor assay kit, cat No. P2816)). Settings: 20 μM test compound solution, 10 μL per well plus 5 μL 4×GS1 and 5 μL 4×GR solution; recombinant human GR; 2 to 4 hours at room temperature; a ratio of 100% or more is indicated by 100%; read-out: GR Binding ratio (%).
T1 construct: purchased Invitrogen P2816
T1 sequence (P04150 1-777): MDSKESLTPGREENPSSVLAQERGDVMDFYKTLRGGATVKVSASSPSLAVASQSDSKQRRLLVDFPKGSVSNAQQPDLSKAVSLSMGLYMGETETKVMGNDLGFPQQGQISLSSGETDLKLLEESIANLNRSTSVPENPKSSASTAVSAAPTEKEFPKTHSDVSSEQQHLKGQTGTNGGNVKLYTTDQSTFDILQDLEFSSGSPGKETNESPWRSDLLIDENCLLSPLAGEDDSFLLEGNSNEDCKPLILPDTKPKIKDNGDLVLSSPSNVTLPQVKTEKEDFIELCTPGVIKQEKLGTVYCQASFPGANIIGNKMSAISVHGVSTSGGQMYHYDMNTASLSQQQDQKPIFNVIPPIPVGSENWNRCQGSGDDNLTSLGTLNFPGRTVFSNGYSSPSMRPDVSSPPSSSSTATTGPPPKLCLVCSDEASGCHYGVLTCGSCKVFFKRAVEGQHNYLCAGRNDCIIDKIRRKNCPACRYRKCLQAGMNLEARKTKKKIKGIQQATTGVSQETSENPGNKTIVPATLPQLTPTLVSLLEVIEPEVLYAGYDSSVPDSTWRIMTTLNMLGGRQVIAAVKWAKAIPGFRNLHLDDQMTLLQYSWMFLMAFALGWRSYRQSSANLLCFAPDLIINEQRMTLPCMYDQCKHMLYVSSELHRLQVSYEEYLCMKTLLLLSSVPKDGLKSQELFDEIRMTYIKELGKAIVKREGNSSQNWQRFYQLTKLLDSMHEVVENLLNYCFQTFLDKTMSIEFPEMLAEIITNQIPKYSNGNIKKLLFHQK
Method: A detailed explanation of this matter will be described in the section of “Pharmacological Test” in Examples described below. In order to find the usefulness of the present compound as a pharmaceutical, a glucocorticoid receptor competitor assay was carried out by a fluorescence polarization method by using a glucocorticoid receptor competitor assay kit (manufactured by Invitrogen, cat No P2816) to study the glucocorticoid receptor binding activity of the present compound.
1. Evaluation Test for Binding Activity to Glucocorticoid Receptor (Hereinafter Referred to as “GR”)
In order to evaluate a binding activity to GR, a receptor competitor assay was carried out by a fluorescence polarization method. In the assay, a GR competitor assay kit (manufactured by Invitrogen, cat No. P2816) was used, and a procedure was carried out according to the protocol attached to the kit. Hereinafter, the specific method will be described.
(Preparation of Reagents)
GR screening buffer: A buffer containing 10 mM potassium phosphate (pH 7.4), 20 mM sodium molybdate (Na2MoO4), 0.1 mM ethylene diamine tetraacetic acid (EDTA), 5 mM dithiothreitol (DTT), 0.1 mM stabilizing peptide and 2% dimethylsulfoxide was prepared.
4×GS1 solution: Fluormone™ GS1, which is a fluorescent glucocorticoid ligand, was diluted with GR screening buffer, whereby a 4 nM solution was prepared.
4×GR solution: Recombinant human GR was diluted with GR screening buffer, whereby a 16 nM solution was prepared.
(Preparation of Test Compound Solution)
After a test compound was dissolved in dimethylsulfoxide, the resulting solution was diluted with GR screening buffer, whereby a 20 μM test compound solution was prepared.
(Test Method and Measurement Method)
1) The test compound solution was added in an amount of 10 μL into each well of a 384-well plate, and then, 4×GS1 solution and 4×GR solution were added in an amount of 5 μL into each well, respectively.
2) The plate was incubated in a dark place at room temperature for 2 to 4 hours.
3) By using a multimode plate reader, Analyst™ HT (manufactured by LJL Biosystems), fluorescence polarization of each well was measured. As the blank, a well containing GR screening buffer in place of the test compound and 4×GS1 solution was used.
4) The same procedure as that in the above 1) to 3) was carried out except that GR screening buffer was used in place of the test compound solution, and the obtained result was taken as the negative control.
5) The same procedure as that in the above 1) to 3) was carried out except that 2 mM dexamethasone was used in place of the test compound solution, and the obtained result was taken as the positive control.
(Calculation Equation of GR Binding Ratio)
A GR binding ratio (%) was calculated from the following equation. GR binding ratio (%)=100×[1−(fluorescence polarization of test compound solution−fluorescence polarization of positive control solution)/(fluorescence polarization of negative control solution−fluorescence polarization of positive control solution)] (Test Results and Discussion)

SMILES | inhibition at 10 µM
COc1cc(OC(=O)c2ccoc2)ccc1-c1ccc2c(c1COc1cc([N+](=O)[O-])ccc1C)C(C)=CC(C)(C)N2 [Compound 1-121, 6-[4-(Furan-3-ylcarbonyloxy)-2-methoxyphenyl]-5-(2-methyl-5-nitrophenoxymethyl)-2,2,4-trimethyl-1,2-dihydroquinoline] | 100%
COc1cc(OC(=O)c2cncs2)ccc1-c1ccc2c(c1COc1cc(F)ccc1C)C(C)=CC(C)(C)N2 [Compound 1-55, 5-(5-Fluoro-2-methylphenoxymethyl)-6-[2-methoxy-4-(thiazol-5-ylcarbonyloxy)phenyl]-2,2,4-trimethyl-1,2-dihydroquinoline] | 100%
COc1cc(OS(=O)(=O)C2CC2)ccc1-c1ccc2c(c1COc1cc(F)ccc1C)C(C)=CC(C)(C)N2 [Compound 4-27, 6-(4-Cyclopropylsulfonyloxy-2-methoxyphenyl)-5-(5-fluoro-2-methylphenoxymethyl)-2,2,4-trimethyl-1,2-dihydroquinoline] | 100%
COc1cc(OS(=O)(=O)C(C)C)ccc1-c1ccc2c(c1COc1cc(F)ccc1C)C(C)=CC(C)(C)N2 [Compound 4-13, 5-(5-Fluoro-2-methylphenoxymethyl)-6-(4-isopropylsulfonyloxy-2-methoxyphenyl)-2,2,4-trimethyl-1,2-dihydroquinoline] | 89%
COc1cc(OC(=O)C2CCCCC2)ccc1-c1ccc2c(c1COc1cc(F)ccc1C)C(C)=CC(C)(C)N2 [Compound 1-12, 6-(4-Cyclohexylcarbonyloxy-2-methoxyphenyl)-5-(5-fluoro-2-methylphenoxymethyl)-2,2,4-trimethyl-1,2-dihydroquinoline] | 100%
COc1cc(OS(=O)(=O)CC(C)C)ccc1-c1ccc2c(c1COc1cc(F)ccc1C)C(C)=CC(C)(C)N2 [Compound 4-28, 5-(5-Fluoro-2-methylphenoxymethyl)-6-(4-isobutylsulfonyloxy-2-methoxyphenyl)-2,2,4-trimethyl-1,2-dihydroquinoline] | 100%
COc1cc(OC(=O)c2ccc([N+](=O)[O-])cc2)ccc1-c1ccc2c(c1COc1cc(F)ccc1C)C(C)=CC(C)(C)N2 [Compound 1-40, 5-(5-Fluoro-2-methylphenoxymethyl)-6-[2-methoxy-4-(4-nitrobenzoyloxy)phenyl]-2,2,4-trimethyl-1,2-dihydroquinoline] | 100%
COc1cc(OC(=O)NC(C)C)ccc1-c1ccc2c(c1COc1cc(F)ccc1C)C(C)=CC(C)(C)N2 [Compound 6-21, 6-(4-Isopropylaminocarbonyloxy-2-methoxyphenyl)-5-(5-fluoro-2-methylphenoxymethyl)-2,2,4-trimethyl-1,2-dihydroquinoline] | 92%
COc1ccccc1C(=O)Oc1ccc(-c2ccc3c(c2COc2cc([N+](=O)[O-])ccc2C)C(C)=CC(C)(C)N3)c(OC)c1 [Compound 1-93, 6-[2-Methoxy-4-(2-methoxybenzoyloxy)phenyl]-5-(2-methyl-5-nitrophenoxymethyl)-2,2,4-trimethyl-1,2-dihydroquinoline] | 92%
COc1ccc([N+](=O)[O-])cc1OCc1c(-c2ccc(OC(=O)c3ccccc3Cl)cc2OC)ccc2c1C(C)=CC(C)(C)N2 [Compound 1-98, 6-[4-(2-Chlorobenzoyloxy)-2-methoxyphenyl]-5-(2-methoxy-5-nitrophenoxymethyl)-2,2,4-trimethyl-1,2-dihydroquinoline] | 100%
COc1cc(OC(=O)c2cccnc2OC)ccc1-c1ccc2c(c1COc1cc(F)ccc1C)C(C)=CC(C)(C)N2 [Compound 1-125, 5-(5-Fluoro-2-methylphenoxymethyl)-6-[2-methoxy-4-(2-methoxypyridin-3-ylcarbonyloxy)phenyl]-2,2,4-trimethyl-1,2-dihydroquinoline] | 100%
COc1cc(OS(=O)(=O)C(C)C)ccc1-c1ccc2c(c1COc1cc([N+](=O)[O-])ccc1C)C(C)=CC(C)(C)N2 [Compound 4-26, 6-(4-Isopropylsulfonyloxy-2-methoxyphenyl)-5-(2-methyl-5-nitrophenoxymethyl)-2,2,4-trimethyl-1,2-dihydroquinoline] | 100%
COc1cc(OC(=O)c2ccoc2)ccc1-c1ccc2c(c1COc1cc(F)ccc1C)C(C)=CC(C)(C)N2 [Compound 1-34, 5-(5-Fluoro-2-methylphenoxymethyl)-6-[4-(furan-3-ylcarbonyloxy)-2-methoxyphenyl]-2,2,4-trimethyl-1,2-dihydroquinoline] | 100%
COc1ccc([N+](=O)[O-])cc1OCc1c(-c2ccc(OC(=O)c3cccnc3C)cc2OC)ccc2c1C(C)=CC(C)(C)N2 [Compound 1-101, 6-[2-Methoxy-4-(2-methylpyridin-3-ylcarbonyloxy)phenyl]-5-(2-methoxy-5-nitrophenoxymethyl)-2,2,4-trimethyl-1,2-dihydroquinoline] | 99%
COc1cc(OC(=O)c2cccc(C(C)=O)c2)ccc1-c1ccc2c(c1COc1cc(F)ccc1C)C(C)=CC(C)(C)N2 [Compound 1-58, 6-[4-(3-Acetylbenzoyloxy)-2-methoxyphenyl]-5-(5-fluoro-2-methylphenoxymethyl)-2,2,4-trimethyl-1,2-dihydroquinoline] | 100%
COc1cc(OC(=O)c2ccncc2F)ccc1-c1ccc2c(c1COc1cc(F)ccc1C)C(C)=CC(C)(C)N2 [Compound 1-91, 5-(5-Fluoro-2-methylphenoxymethyl)-6-[4-(3-fluoropyridin-4-ylcarbonyloxy)-2-methoxyphenyl]-2,2,4-trimethyl-1,2-dihydroquinoline] | 96%
COc1ccccc1C(=O)Oc1ccc(-c2ccc3c(c2COc2cc(F)ccc2C)C(C)=CC(C)(C)N3)c(OC)c1 [Compound 1-8, 5-(5-Fluoro-2-methylphenoxymethyl)-6-[2-methoxy-4-(2-methoxybenzoyloxy)phenyl]-2,2,4-trimethyl-1,2-dihydroquinoline] | 100%
COc1ccc([N+](=O)[O-])cc1OCc1c(-c2ccc(OC(=O)c3ccsc3)cc2OC)ccc2c1C(C)=CC(C)(C)N2 [Compound 1-115, 5-(2-Methoxy-5-nitrophenoxymethyl)-6-[2-methoxy-4-(thiophen-3-ylcarbonyloxy)phenyl]-2,2,4-trimethyl-1,2-dihydroquinoline] | 97%
C=CC(=O)Oc1ccc(-c2ccc3c(c2COc2cc(F)ccc2C)C(C)=CC(C)(C)N3)c(OC)c1 [Compound 1-17, 6-(4-Acryloyloxy-2-methoxyphenyl)-5-(5-fluoro-2-methylphenoxymethyl)-2,2,4-trimethyl-1,2-dihydroquinoline] | 100%
COc1cc(OC(=O)c2cccc(F)c2)ccc1-c1ccc2c(c1COc1cc(F)ccc1C)C(C)=CC(C)(C)N2 [Compound 1-60, 6-[4-(3-Fluorobenzoyloxy)-2-methoxyphenyl]-5-(5-fluoro-2-methylphenoxymethyl)-2,2,4-trimethyl-1,2-dihydroquinoline] | 100%
